# Laboratory results taken from PubChem BioAssay AID1645865 (Buhrlage Lab, Dana-Farber Cancer Institute and Novartis …, 2021).
# Active and inactive are the calls of the source.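 How the source made its calls: active means maximal inhibition of the USP30 enzyme reaching 30% or more across the dose series; inactive means the rest.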
# Target: Ubiquitin carboxyl-terminal hydrolase 30 (Homo sapiens) (UniProt Q70CQ3)
# Assay: ubiquitin-specific protease 30 DUB inhibitors, concentration-effect, biochemical, validation of primary actives (AID 1645865)
# Conditions: purified USP30, Ub-rhodamine cleavage, fluorescence, 2 h
# Sequence of Ubiquitin carboxyl-terminal hydrolase 30 (Homo sapiens) (Q70CQ3 whole entry, looked up): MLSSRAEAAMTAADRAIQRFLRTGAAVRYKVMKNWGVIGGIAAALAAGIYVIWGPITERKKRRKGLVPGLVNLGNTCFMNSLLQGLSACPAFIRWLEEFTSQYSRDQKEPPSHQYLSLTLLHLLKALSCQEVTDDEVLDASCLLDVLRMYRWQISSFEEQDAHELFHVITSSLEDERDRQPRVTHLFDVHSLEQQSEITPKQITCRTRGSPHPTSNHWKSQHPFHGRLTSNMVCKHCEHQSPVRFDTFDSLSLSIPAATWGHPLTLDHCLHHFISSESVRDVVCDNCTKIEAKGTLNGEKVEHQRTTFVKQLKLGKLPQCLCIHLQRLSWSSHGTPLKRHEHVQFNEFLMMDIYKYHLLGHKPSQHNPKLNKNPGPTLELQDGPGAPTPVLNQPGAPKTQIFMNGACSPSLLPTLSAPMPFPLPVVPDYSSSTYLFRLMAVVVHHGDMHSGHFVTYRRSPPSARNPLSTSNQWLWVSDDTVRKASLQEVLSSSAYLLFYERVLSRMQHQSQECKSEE
row,Compound,IC50
1,COc1ccc2c(C)c(CC(=O)N3CCC[C@H]3C(=O)O)c(=O)oc2c1C,45 µM
2,CC1CCCCN1CCCNC(=O)c1ccc(N2CCc3ccccc32)s1 (stereo not given),30.9 µM
3,Cc1cc(NCC2CC2)n2nc(Nc3cc(Cl)ccc3C)nc2n1,23.6 µM
4,O=C(Cc1ccc(Cl)c(Cl)c1)OCC(=O)c1c[nH]c2ccccc12,> 50 µM (inactive)
5,CCN1C[C@@H]2C[C@]2(c2ccccc2OC)C(=O)c2ncccc21,> 50 µM (inactive)
6,c1cnc(-c2n[nH]c(C3CCN(C4CCNC4)CC3)n2)cn1 (stereo not given),> 50 µM (inactive)
7,N#Cc1ccccc1OCc1csc(-c2ccccc2)n1,> 50 µM (inactive)
8,N#Cc1cccnc1N1CCN(C(=O)Nc2cccc3ccccc23)CC1,> 50 µM (inactive)
9,O=C1c2ccccc2NC2(C(=O)Nc3ccc(Br)cc32)N1c1ccccc1 (stereo not given),> 50 µM (inactive)
10,Cc1cc(C)c(NC(=O)Cn2c(=O)n(CCC(=O)NCc3ccc4c(c3)OCO4)c(=O)c3sccc32)c(C)c1,1.98 µM
11,CCC(=O)OCc1cnc(C)c2oc(=O)c(-c3nc(-c4ccccc4)no3)cc12,> 50 µM (inactive)
12,COc1ccc(NC(=O)COc2cc(CSc3ccccc3)ncc2OC)cc1,25.7 µM
13,Cc1cc(NC(=O)c2nnn(-c3ccccc3Cl)c2C)no1,> 50 µM (inactive)
14,O=C(NCc1ccc2c(c1)OCO2)c1cc2c(s1)-c1ccccc1OC2,3.58 µM
15,Cc1nnc(-c2nnc(NCc3ccc(Cl)cc3)c3ccccc23)o1,> 50 µM (inactive)
16,CC[C@H](C)[C@H](NC(=O)[C@H]([C@@H](C)CC)N(C)C(C)=O)C(=O)N[C@H](C(=O)N[C@@H](CC(C)C)C(=O)C1(C)CO1)[C@@H](C)O (stereo not given in full),> 50 µM (inactive)
17,COc1ccc(C(=O)Nc2ccccc2C(=O)NCc2ccccc2)cc1,30.4 µM
18,Cc1ccc(-c2csc(-n3ncc(C(=O)N4CCN(C(=O)Nc5cccc6ccccc56)C(C)C4)c3C(C)C)n2)cc1 (stereo not given),> 50 µM (inactive)
19,Nc1c(C(=O)NCc2ccc3c(c2)OCO3)nnn1Cc1ccc(Br)cc1F,2.35 µM
20,COc1ccc(C(=O)Nc2nc(-c3ccc4c(c3)NC(=O)CO4)c(C)s2)cc1OC,1.68 µM
21,Cc1ccc(Nc2nc(Nc3cccc(F)c3)nc3nccnc23)c(C)c1,> 50 µM (inactive)
22,O=C(Cc1noc2ccccc12)NCC(=O)Nc1ccc(Cl)cc1,21.6 µM
23,CC(C(=O)Nc1ccccc1)n1cnc2nc(N3CCCCC3)ncc2c1=O (stereo not given),> 50 µM (inactive)
24,Cc1cccc(C(=O)N2CCN3Cc4ccccc4N(C)CC3C2)c1 (stereo not given),> 50 µM (inactive)

row,Compound,IC50
1,Cc1ccc(NC(=O)c2cnc(N3CCOCC3)nc2)cc1F,27.6 µM
2,CCOC(=O)C1CCN(C(=O)c2ccc3c(c2)NC(=O)C2CCCN32)CC1 (stereo not given),> 50 µM (inactive)
3,O=C(COC(=O)c1ccc(Cl)cc1)Nc1ccc2[nH]c(=O)[nH]c2c1,3.98 µM
4,COC(=O)c1ccc(Cn2cnc3ccc(F)cc3c2=O)o1,> 50 µM (inactive)
5,Cc1cc(-c2cnc(N(C)C)nc2-c2ccc(CNC(=O)Cc3ccc(F)cc3)cc2)on1,> 50 µM (inactive)
6,COc1cccc(NC(=O)C2Cc3ccccc3N2C(=O)c2ccccc2)c1 (stereo not given),22.2 µM
7,COc1cccc(Cn2nc3n(CC(C)C)c(=O)c4ccc(C(=O)NCC(C)C)cc4n3c2=O)c1,2.37 µM
8,O=S(=O)(c1ccccc1)N1CCN2Cc3ccccc3N(Cc3ccccc3)CC2C1 (stereo not given),> 50 µM (inactive)
9,Cc1cc(C(F)(F)F)n(-c2ccc(NC(=O)Nc3cccc(C(F)(F)F)c3)cc2)n1,8.68 µM
10,Cc1ccc2c(Nc3ccc(CC(=O)O)cc3)c(C(=O)N3CCCC3)cnc2n1,> 50 µM (inactive)
11,Cc1sc(NC(=O)CN2CCc3ccccc3C2)nc1-c1ccc2c(c1)CCN2C(=O)C1CCCCC1,> 50 µM (inactive)
12,COC1/C=C/OC2(C)Oc3c(C)c(O)c4c(c3C2=O)C(=O)C=C(NC(=O)/C(C)=C\C=C\C(C)C(O)C(C)C(O)C(C)C(OC(C)=O)C1C)C4=O (stereo not given),> 50 µM (inactive)
13,Cn1nc(-c2ccccc2)c(COC(=O)c2ccc([N+](=O)[O-])cc2)c1Cl,23.4 µM
14,COc1ccc(-c2nc(SCC(=O)Nc3ccc(Cl)cc3F)n[nH]2)cc1,> 50 µM (inactive)
15,Cc1c(C(=O)NCc2cccc(Br)c2)oc2c1-c1[nH]ncc1CC2,> 50 µM (inactive)
16,NC(=O)c1nc(-c2cccc(F)c2)nc2c1[nH]c(=O)n2C1CCCCC1,3.78 µM
17,CSc1nccc(-c2ccc(F)cc2)c1C#N,36.3 µM
18,O=C1CC(C(=O)Nc2ccc(F)cc2)n2nc(SCc3ccccc3)nc2N1 (stereo not given),26.8 µM
19,O=C(c1ccco1)N1CCC2(CC1)CC1(CO2)Nc2ccccc2-n2cccc21 (stereo not given),> 50 µM (inactive)
20,COc1ccc(N(CC(=O)Nc2cccc(F)c2)S(=O)(=O)c2ccc(OC)c(OC)c2)cc1,17.6 µM
21,Cc1ccc(NC(=O)c2cc(=O)n(C)c3c2c(=O)n(C)c(=O)n3C)c(C)c1,> 50 µM (inactive)
22,Cn1c2ccccc2c(=O)c2c(=O)n(Cc3ccccc3)c(-c3ccccc3F)nc21,0.111 µM
23,COc1ccc(NC(=O)Cn2cc(C(=O)c3ccc(C)cc3)c(=O)c3ccccc32)cc1,2.32 µM
24,O=C(COc1nc2ccccc2nc1N1CCOCC1)NC(c1ccccc1)c1ccccc1,> 50 µM (inactive)

row,Compound,IC50
1,Fc1ccc(Nc2nc(Nc3cccc(F)c3)nc3nccnc23)cc1,> 50 µM (inactive)
2,COc1ccc2[nH]c3c(c2c1)CCN1C(=O)N(c2ccccc2C(=O)NCc2ccccc2)C(=O)[C@]31C,28.5 µM
3,Cc1cccc(-n2ccnc(SCC(=O)Nc3ccc(Cl)cc3F)c2=O)c1,2.4 µM
4,Cc1ccc2cc3c(nc2n1)CCN(Cc1ccc(F)cc1)C3,> 50 µM (inactive)
5,O=C(CCc1nnc2n(Cc3ccccc3)c(=O)c3ccccc3n12)N1CCN(c2ccccn2)CC1,2.29 µM
6,CC1(C)CC2CC(C)(CN2Cc2c(O)ccc3ccccc23)C1 (stereo not given),> 50 µM (inactive)
7,CC1CCc2c(sc3ncnc(NC4CCN(CC(N)=O)CC4)c23)C1 (stereo not given),> 50 µM (inactive)
8,COc1cccc(-c2cc(=O)[nH]c(Nc3nc(C)c4ccccc4n3)n2)c1,35.4 µM
9,CC(C)(C)c1cc(C[C@@H]2C[C@H](NC(=O)N3CCOCC3)C2(C)C)no1,22.2 µM
10,O=C(Nc1cccc(OC(=O)c2ccc(Cl)cc2)c1)c1ccc(Cl)cc1,16 µM
11,COc1cc2c(cc1OC)C(COc1ccccc1OC)N(C(=O)c1ccc3ccccc3c1)CC2 (stereo not given),> 50 µM (inactive)
12,CCC1=C(c2ccc(C)cc2)S(=O)(=O)NC1=NCC(=O)NCc1ccccc1F,> 50 µM (inactive)
13,COc1ccc(COc2ccc3c(C)c(CC(=O)N4CC[C@@]5(O)CCCC[C@H]5C4)c(=O)oc3c2)cc1,2.22 µM
14,O=C(CSc1nncc2ccccc12)Nc1ccc2c(c1)OCO2,> 50 µM (inactive)
15,CCCN1CCN(C(=O)c2cc(NC(=O)C3CCC3)cc3nc(C)ccc23)CC1,> 50 µM (inactive)
16,O=C(NCc1ccccc1Cl)c1ccc2cn[nH]c2c1,> 50 µM (inactive)
17,CCN1C(=O)c2cccnc2Sc2cc(NC(=O)c3ccc(Cl)s3)ccc21,> 50 µM (inactive)
18,CC(=O)N1CCc2cc(S(=O)(=O)NCc3ccc(C)cc3)ccc21,> 50 µM (inactive)
19,COc1ccc(C(=O)Nc2ccc3c(c2)Sc2ncccc2C(=O)N3C)cn1,> 50 µM (inactive)
20,CCc1ccc(-n2c(=O)c3ccccc3n(CC(=O)NCCC3=CCCCC3)c2=O)cc1,6.68 µM
21,COc1ccc2c(c1)CCc1c-2n[nH]c1C(=O)Nc1cc(C)on1,4.04 µM
22,COc1ccccc1-c1nc(-c2cn(-c3ccc(C)cc3)nn2)no1,6.47 µM
23,O=C(OCCCN1C(=O)c2cccc3c(N4CCCCC4)ccc(c23)C1=O)c1ccccn1,> 50 µM (inactive)
24,O=C(Nc1ccccc1Sc1ncc(-c2ccc(Cl)cc2)cn1)c1ccco1,4.01 µM

row,Compound,IC50
1,O=c1ccc(-c2noc(-c3ccc4cc[nH]c4c3)n2)c[nH]1,> 50 µM (inactive)
2,NC(=O)CCC(=O)N[C@H]1C[C@H]2CN(Cc3ccccc3)c3ccccc3CN2C1,> 50 µM (inactive)
3,CO/C1=C\C(C)=C/[C@@H](C)[C@@H](O)[C@@H](C)C/C(C)=C/C=C/[C@H](OC)[C@@H]([C@@H](C)[C@@H](O)[C@H](C)[C@@]2(O)C[C@@H](OC(=O)/C=C/C(N)=O)[C@H](C)[C@@H](C(C)C)O2)OC1=O,> 50 µM (inactive)
4,CC(=O)NCc1nc(-c2ccc3c(c2)nc(C)c(=O)n3C2CCCC2)no1,> 50 µM (inactive)
5,COc1ccc(C(=O)CSc2nnc(-c3cccnc3)n2-c2ccccc2)cc1,> 50 µM (inactive)
6,CCC(CC)n1[nH]c(=O)c2c1NC(=O)CSC2c1ccc2c(c1)OCO2 (stereo not given),16.7 µM
7,Cc1ccc(CNC(=O)c2cnc3ccccc3n2)cc1,> 50 µM (inactive)
8,O=C(Cc1cccnc1)Nc1ccc(N2CCN(C3CCCCC3)C2=O)nc1,> 50 µM (inactive)
9,Cc1ccc(C2=Nc3ccccc3N(CC(=O)Nc3cccc(C)c3C)C(=O)C2)cc1C,4.93 µM
10,Cc1nn(C)c2c1[C@@H](c1ccc(F)c(Br)c1)[C@H](NC(=O)c1ccccc1)C(=O)N2,> 50 µM (inactive)
11,Cc1nc2nc(SCc3nc4ccccc4n3C)[nH]c2cc1Br,4.82 µM
12,COc1ccc(N2CCN(Cc3nnnn3Cc3ccc4c(c3)OCO4)CC2)cc1,> 50 µM (inactive)
13,CCn1cc2c(n1)c(=O)n(Cc1ccc(C)cc1)c(=O)n2CC(=O)Nc1ccc(F)cc1,3.47 µM
14,CCOC(=O)c1cnn(-c2ccc(C(=O)Nc3ccc(C)c(Cl)c3)cc2)c1N,2.17 µM
15,COc1ccc(CC(=O)NCc2ccc3[nH]c(C)cc3c2)cc1,> 50 µM (inactive)
16,O=C(Cn1c(NCc2ccccc2)nc2ccccc21)NCC(F)(F)F,33.1 µM
17,CC(=O)c1oc2nc3c(c(-c4ccc(Cl)cc4)c2c1N)CCc1ccccc1-3,> 50 µM (inactive)
18,COc1ccc(NC(=O)C2CCCN(S(=O)(=O)N3CCCCCC3)C2)cc1 (stereo not given),42.7 µM
19,O=C(Nc1cccn(Cc2c(Cl)cccc2Cl)c1=O)c1ccccc1[N+](=O)[O-],> 50 µM (inactive)
20,Cc1c(C(=O)Nc2ccc(-c3nnc4n3CCCCC4)cc2)oc2c1ccc1ccccc12,> 50 µM (inactive)
21,COc1ccc(NC(=O)C2CCN(c3cncnc3N(C)C)CC2)cc1OC,> 50 µM (inactive)
22,Cc1ccc2c(c1)[C@]1(C(=O)N2)[C@@H](C(=O)c2ccccc2)[C@]2(C(=O)Nc3ccccc32)[C@@H]2CCCN21,35.1 µM
23,Cc1cc(-n2c(C)cc(-c3csc(N)n3)c2C)no1,> 50 µM (inactive)
